Reference: patent US10071035B2, “Use of benzyl alcohol as a defoaming agent” (Colgate-Palmolive Company, priority 2014, dated 2018)

Assays:
[1] = Defoaming of foam generated from aqueous 0.2% sodium lauryl sulfate solution in measuring cylinders; type: physicochemical; settings: three minutes after addition of 1 mL aliquot of defoaming agent to 0.2% SLS foam
Description: Three aqueous solutions of 0.2% sodium lauryl sulfate were prepared in 250 mL measuring cylinders by diluting 5 g of a 2% sodium lauryl sulfate stock solution with water to give a total volume of 50 mL. The solutions were agitated by swirling the measuring cylinders 12 times to generate foam. The volumes of foam generated were recorded. A 1 mL aliquot of defoaming agent was then added to each of the solutions at a rate of 0.01 mL/s. The defoaming agents investigated were benzyl alcohol, methanol, and water. Three minutes after the addition of the defoaming agent, the volumes of foam present in each vessel were recorded.

[2] = Time taken to defoam (batch to settle) under vacuum during manufacture of oral care composition; settings: composition B (0.3% benzyl alcohol) versus comparative composition A, 4 kg batch
Description: The compositions were manufactured as follows: • 1. The sorbitol was added to an SS vessel having a stirrer. The stirrer was started. The sorbitol was heated to 60-62° C. • 2. Half of the purified water was added to the SS vessel. • 3. The copolymer of methyl vinyl ether and maleic acid was added to the SS vessel and mixed. Mixing was continued until the copolymer of methyl vinyl ether and maleic acid was fully dispersed. • 4. The NaOH (50% solution) was added to the SS vessel and mixed for 5 minutes. • 5. The remaining purified water was added to the SS vessel. • 6. […] The pre-mix was added to the SS vessel. • 7. The resulting gel was mixed for 20 minutes at a temperature of 64-67° C. • 8. The gel was transferred to a mixer. The thickener silica was added to the mixer and mixed for 5 minutes. The mixer used in the present experiment was an Alpro mixer. • 9. The abrasive silica and titanium dioxide were added to the mixer and mixed under vacuum. Mixing was continued until the temperature reached 46° C. • 10. At 46° C., the flavor, triclosan and sodium lauryl sulfate granules were added to the mixture. If used, benzyl alcohol was also added at this stage. • 11. The resulting mixture was then stirred for 2 minutes. Vacuum was then applied. The time taken for the batch to settle was observed. • 12. After allowing the batch to settle, mixing was continued for a further 8 minutes. […]

Structure (SMILES) | % reduction in foam after addition of defoaming agent [1] [%] | reduction of the defoaming time [2] [%] | reduction of the defoaming time ([2]; listed as benzyl alcohol)
CO [Methanol, methanol, reference compound] | 74.5 | – | –
OCc1ccccc1 [Benzyl alcohol, benzyl alcohol] | 59.1 | 50 | about 50%
